The target in one data set is T1, rat mGlu 1a receptor (Rattus norvegicus, UniProt P23385).
T1 construct: expressed in transfected cells; host or cells: EBNA cells (transient transfection)
The data set can be described thus: [Ca2+]i measurement (FLIPR) on mGlu 1a transfected EBNA cells (headed "Binding Assay"). It counts as cell-based. The following applies: rat mGlu 1a transiently transfected EBNA cells, Fluo-3 AM, activation (agonist) curves. The procedure: The compounds of the present invention are group I mGlu receptor agonists. The compounds show activities, as measured in the below binding assay, of 0.2 μM or less.
cDNA encoding rat mGlu 1a receptor obtained from Prof. S. Nakanishi (Kyoto, Japan) was transiently transfected into EBNA cells using a procedure described by Schlaeger et al, New Dev. New Appl. Anim. Cell Techn., Proc. ESACT Meet., 15, (1998), 105–112 and 117–120. [Ca^2+]i measurements were performed on mGlu 1a transfected EBNA cells after incubation of the cells with Fluo-3 AM (0.5 μM final concentration) for 1 hour at 37° C. followed by 4 washes with assay buffer (DMEM supplemented with Hank's salt and 20 mM HEPES. [Ca^2+]i measurements were done using a fluorometric imaging plate reader (FLIPR, Molecular Devices Corporation, La Jolla, Calif., USA). When compounds were evaluated as antagonists they were tested against 10 μM glutamate as agonist.
The activation (agonists) curves were fitted with a four parameter logistic equation giving EC50, and Hill coefficient using the iterative non linear curve fitting software Origin (Microcal Software Inc., Northampton, Mass., USA).
In the table below are shown specific EC50 values of compounds of formula I: […]

The nature of data set [1]: Microsome incubation, human liver microsomes (metabolic stability). Type of data set: in vitro ADME. As to conditions: for MAB (human): maximal achievable bioavailability = 1−E (hepatic extraction ratio), extrapolated from human microsomal clearance; for microsomal CLint at 10 μM: pH 7.4, human liver microsomes 2.0 mg prot/mL, test compound 10 μM, 37° C., NADPH regenerating system, calculated from in vitro half-life, read-out: Intrinsic clearance (human). The procedure: (§1) The compounds of formula I of the present invention are further characterized by high metabolic stability. This parameter is a prerequisite for good bioavailability, which is necessary to obtain medicaments with acceptable in-vivo activity. The metabolic stability has been tested by the following method:
(§2) Incubation mixtures consisted of liver microsomes (rat 1.0 mg prot/mL or human 2.0 mg prot/mL), test compound 10 μM, MgCl2 (3.3 mM), and an NADPH regenerating system consisting of glucose-6-phosphate dehydrogenase, NADPH and glucose-6-phosphate (equivalent to 1 mM NADPH) in a total volume of 1.0 mL of potassium phosphate buffer 100 mM pH 7.4. Reactions were initiated by addition of the NADPH regenerating system at 37° C. At the time of 1, 5, 9, 13, 17, 21, 25, and 29 min a 5 μL aliquot was directly analysed on a HPLC-MS/MS system consisting of a HP 1100 quaternary pump with degasser and a PE-Sciex API-2000 MS/MS spectrometer. The analytical column was a Waters Symmetry Shield RP8 (2.1*50 mm with a […] particle size). A polarity non linear gradient from phase A (MeOH/Ac. Form.1% 20/80) to phase B (MeOH) was applied for a total run time of 2 minutes at a flow rate of 0.25 mL/min. The PE-Sciex API-2000 MS/MS spectrometer was used for detection of the parent compound. In vivo metabolic clearance was predicted according to published procedures [Houston, Biochem. Pharmacol. 47:1469–1479 (1994)]. In brief, the intrinsic clearance (Clearance, see table below) is calculated from the measured in vitro half-life taking into account incubation volume and microsomal protein used for the in vitro incubation. The intrinsic clearance is expressed in terms of μl/min/mg microsomal protein. For in vivo extrapolations, the hepatic extraction ratio (E) was calculated. Here it is reported the % MAB value which is equal to 1−E. The MAB (maximal achievable bioavailability) values express the maximal bioavailability that one can achieve with the given clearance values.

Data set [2] in a line: Microsome incubation, rat liver microsomes (metabolic stability). As to conditions: for MAB (rat): maximal achievable bioavailability = 1−E (hepatic extraction ratio), extrapolated from rat microsomal clearance; for microsomal CLint at 10 μM: pH 7.4, rat liver microsomes 1.0 mg prot/mL, test compound 10 μM, 37° C., NADPH regenerating system, calculated from in vitro half-life, read-out: Intrinsic clearance (rat). Type of data set: in vitro ADME. As for the experimental part:
as §1, §2

pEC50: −log10 of the molar value.

T1 sequence (P23385 19-1199): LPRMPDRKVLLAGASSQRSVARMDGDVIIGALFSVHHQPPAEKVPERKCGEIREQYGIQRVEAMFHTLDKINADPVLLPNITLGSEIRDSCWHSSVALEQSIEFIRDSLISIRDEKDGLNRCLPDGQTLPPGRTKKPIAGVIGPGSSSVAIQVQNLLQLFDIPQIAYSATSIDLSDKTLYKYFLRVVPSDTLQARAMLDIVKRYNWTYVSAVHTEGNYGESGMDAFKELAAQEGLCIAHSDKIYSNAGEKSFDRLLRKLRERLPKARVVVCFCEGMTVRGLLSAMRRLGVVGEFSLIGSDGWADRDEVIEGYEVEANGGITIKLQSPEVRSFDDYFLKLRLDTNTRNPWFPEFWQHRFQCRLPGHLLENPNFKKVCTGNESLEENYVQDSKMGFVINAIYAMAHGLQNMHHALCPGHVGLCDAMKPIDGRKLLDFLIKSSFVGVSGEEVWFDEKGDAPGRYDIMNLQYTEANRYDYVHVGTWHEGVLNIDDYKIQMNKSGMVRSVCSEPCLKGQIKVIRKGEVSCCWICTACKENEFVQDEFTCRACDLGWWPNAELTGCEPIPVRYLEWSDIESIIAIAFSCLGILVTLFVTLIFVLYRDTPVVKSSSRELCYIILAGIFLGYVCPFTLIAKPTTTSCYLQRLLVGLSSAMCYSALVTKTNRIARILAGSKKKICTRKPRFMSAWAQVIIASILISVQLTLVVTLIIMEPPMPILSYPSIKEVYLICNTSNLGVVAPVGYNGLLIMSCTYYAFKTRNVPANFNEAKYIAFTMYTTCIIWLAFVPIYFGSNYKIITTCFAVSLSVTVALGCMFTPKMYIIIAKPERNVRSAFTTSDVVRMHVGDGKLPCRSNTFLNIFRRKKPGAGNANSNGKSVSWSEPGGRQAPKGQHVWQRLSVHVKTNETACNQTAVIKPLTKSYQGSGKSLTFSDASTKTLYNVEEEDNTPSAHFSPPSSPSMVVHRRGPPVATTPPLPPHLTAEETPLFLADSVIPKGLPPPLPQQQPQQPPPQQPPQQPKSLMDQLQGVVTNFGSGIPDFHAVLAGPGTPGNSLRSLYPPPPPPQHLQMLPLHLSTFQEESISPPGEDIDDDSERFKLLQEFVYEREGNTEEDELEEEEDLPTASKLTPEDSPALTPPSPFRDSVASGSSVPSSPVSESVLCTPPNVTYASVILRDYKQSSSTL

For orientation: pEC50 means the negative decadic logarithm of the EC50, by convention in mol/L. A lower pEC50 goes with a large EC50. `O=C(Nc1nc(C(F)(F)F)co1)C1c2ccccc2Oc2ccccc21` [Example 1, 9H-Xanthene-9-carboxylic acid (4-trifluoromethyl-oxazol-2-yl)-amide] gave a pEC50 at rat mGlu 1a receptor of 7.25. For the same molecule, in data set [1], the “MAB (human)” value is on record as 68% and the microsomal CLint at 10 μM was 8 µL/min/mg. In data set [2], the “MAB (rat)” value was 25% and the microsomal CLint at 10 μM is 108 µL/min/mg.
A word on the melting point: it is the temperature, or range, at which the solid turns liquid. `O=C(Nc1ncc(C(F)(F)F)o1)C1c2cc(F)ccc2Oc2ccc(F)cc21` [Example 10, 2,7-Difluoro-9H-xanthene-9-carboxylic Acid (5-trifluoromethyl-oxazol-2-yl)-amide] registered a melting point of 232 °C. On rat mGlu 1a receptor, this molecule gave a pEC50 of 6.91. For the same molecule, in data set [1], the “MAB (human)” value is 73% and the microsomal CLint at 10 μM was 5.6 µL/min/mg. Moreover, in data set [2], the “MAB (rat)” value was 54% and the microsomal CLint at 10 μM was 26.1 µL/min/mg.
In turn, `O=C(Nc1nc(C(F)(F)F)co1)C1c2ccccc2Oc2c(F)cccc21` (racemic) [Example 7, (RS)-4-Fluoro-9H-xanthene-9-carboxylic Acid (4-trifluoromethyl-oxazol-2-yl)-amide] had a melting point of 233 °C. The same molecule showed a pEC50 on rat mGlu 1a receptor of 7.80. Further, in data set [1], the “MAB (human)” value is 67% and the microsomal CLint at 10 μM was 7.9 µL/min/mg. In data set [2], the “MAB (rat)” value is 48% and the microsomal CLint at 10 μM was 32.8 µL/min/mg.
With `O=C(Nc1ncc(C(F)(F)F)o1)C1c2ccccc2Oc2c(F)cccc21` (racemic) [Example 8, (RS)-4-Fluoro-9H-xanthene-9-carboxylic Acid (5-trifluoromethyl-oxazol-2-yl)-amide], the melting point was determined as 228 °C. This molecule also gave a negative logarithm of the EC50 (pEC50) on rat mGlu 1a receptor of 7.68. Moreover, in data set [1], the “MAB (human)” value is 45% and the microsomal CLint at 10 μM is 19.2 µL/min/mg. Moreover, in data set [2], the “MAB (rat)” value is 49% and the microsomal CLint at 10 μM was 31.8 µL/min/mg.
In turn, `O=C(Nc1ncc(C(F)(F)F)o1)C1c2ccccc2Oc2cc(F)ccc21` (racemic) [Example 6, (RS)-3-Fluoro-9H-xanthene-9-carboxylic Acid (5-trifluoromethyl-oxazol-2-yl)-amide] yielded a melting point of 250 °C. In data set [1], the “MAB (human)” value is 63% and the microsomal CLint at 10 μM was 9.2 µL/min/mg. In data set [2], the “MAB (rat)” value is 52% and the microsomal CLint at 10 μM was 27.8 µL/min/mg.
For the molecule `O=C(Nc1ncc(C(F)(F)F)o1)C1c2ccccc2Oc2ccc(F)cc21` (racemic) [Example 4, (RS)-2-Fluoro-9H-xanthene-9-carboxylic Acid (5-trifluoromethyl-oxazol-2-yl)-amide], the melting point turned out to be 217 °C. The molecule further showed a pEC50 at rat mGlu 1a receptor of 7.70. Also, in data set [1], the “MAB (human)” value is 45% and the microsomal CLint at 10 μM is 18.8 µL/min/mg. In addition, in data set [2], the “MAB (rat)” value is recorded as 43% and the microsomal CLint at 10 μM is 40.2 µL/min/mg.
`O=C(Nc1nc(C(F)(F)F)co1)C1c2ccccc2Oc2ccc(Cl)cc21` (racemic) [Example 13, (RS)-2-Chloro-9H-xanthene-9-carboxylic Acid (4-trifluoromethyl-oxazol-2-yl)-amide]: the melting point worked out at 235 °C. Further, the pEC50 at rat mGlu 1a receptor is 7.82.
For `O=C(Nc1nc(C(F)(F)F)co1)C1c2cc(F)ccc2Oc2ccc(F)cc21` [Example 9, 2,7-Difluoro-9H-xanthene-9-carboxylic Acid (4-trifluoromethyl-oxazol-2-yl)-amide], the melting point turned out to be 259 °C. The pEC50 at rat mGlu 1a receptor is 7.36. In data set [1], the “MAB (human)” value is on record as 85% and the microsomal CLint at 10 μM was 2.7 µL/min/mg. Also, in data set [2], the “MAB (rat)” value is listed as 77% and the microsomal CLint at 10 μM was 8.9 µL/min/mg.
Consider `O=C(Nc1nc(C(F)(F)F)co1)C1c2ccc(F)cc2Oc2cc(F)ccc21` [Example 11, 3,6-Difluoro-9H-xanthene-9-carboxylic Acid (4-trifluoromethyl-oxazol-2-yl)-amide], for which the melting point was found to be 265 °C. Also, the pEC50 on rat mGlu 1a receptor is 8.52. Also, in data set [1], the “MAB (human)” value is recorded as 59% and the microsomal CLint at 10 μM is 11.1 µL/min/mg. For the same molecule, in data set [2], the “MAB (rat)” value is recorded as 63% and the microsomal CLint at 10 μM was 17.6 µL/min/mg.
For the molecule `O=C(Nc1ncc(C(F)(F)F)o1)C1c2ccc(F)cc2Oc2cc(F)ccc21` [Example 12, 3,6-Difluoro-9H-xanthene-9-carboxylic Acid (5-trifluoromethyl-oxazol-2-yl)-amide], the melting point came to 249 °C. The same molecule showed a pEC50 at rat mGlu 1a receptor of 7.60. In data set [1], the “MAB (human)” value is 63% and the microsomal CLint at 10 μM was 9.1 µL/min/mg. For the same molecule, in data set [2], the “MAB (rat)” value is listed as 72% and the microsomal CLint at 10 μM is 11.6 µL/min/mg.
`O=C(Nc1nc(C(F)(F)F)co1)C1c2ccccc2Oc2c(Cl)cccc21` (racemic) [Example 14, (RS)-4-Chloro-9H-xanthene-9-carboxylic Acid (4-trifluoromethyl-oxazol-2-yl)-amide] showed a melting point of 212 °C. Besides, the negative-log EC50 (pEC50) at rat mGlu 1a receptor is 7.03.
`O=C(Nc1nc(C(F)(F)F)co1)C1c2ccccc2Oc2ccc(F)cc21` (racemic) [Example 3, (RS)-2-Fluoro-9H-xanthene-9-carboxylic Acid (4-trifluoromethyl-oxazol-2-yl)-amide]: the melting point came to 241 °C. The same molecule gave a pEC50 at rat mGlu 1a receptor of 7.26. In data set [1], the “MAB (human)” value is reported as 61% and the microsomal CLint at 10 μM is 9.9 µL/min/mg. In addition, in data set [2], the “MAB (rat)” value is reported as 32% and the microsomal CLint at 10 μM is 61.4 µL/min/mg.
Consider `O=C(Nc1nc(C(F)(F)F)co1)C1c2ccccc2Oc2cc(F)ccc21` (racemic) [Example 5, (RS)-3-Fluoro-9H-xanthene-9-carboxylic Acid (4-trifluoromethyl-oxazol-2-yl)-amide], for which the melting point worked out at 221 °C. This molecule also showed a pEC50 at rat mGlu 1a receptor of 7.40. In addition, in data set [1], the “MAB (human)” value was 78% and the microsomal CLint at 10 μM was 4.3 µL/min/mg. In data set [2], the “MAB (rat)” value is on record as 46% and the microsomal CLint at 10 μM is 34.3 µL/min/mg.
In the case of `O=C(Nc1ncc(C(F)(F)F)o1)C1c2ccccc2Oc2ccccc21` [Example 2, 9H-Xanthene-9-carboxylic Acid (5-trifluoromethyl-oxazol-2-yl)-amide], the melting point was determined as 218 °C. The molecule also had a pEC50 on rat mGlu 1a receptor of 7.42. In data set [1], the “MAB (human)” value is 68% and the microsomal CLint at 10 μM is 14 µL/min/mg. For the same molecule, in data set [2], the “MAB (rat)” value is 37% and the microsomal CLint at 10 μM was 50 µL/min/mg.
